Data from patent US11339193B2, “CDP protein secretion inhibitors” (KEZAR LIFE SCIENCES, priority 2018, dated 2022).
Numbered stars: 1 amine (or outer) side, 2 acyl side, 3 side chain; on linkers, the order of the positions; unused ones are H or OH. Square brackets hold non-standard residues; d marks the D form. Peptide text beside a SMILES is read from it. NMeTrp(1-(4-Br-benzyl)) = CN[C@@H](Cc1cn(Cc2ccc(Br)cc2)c2ccccc12)C(=O)O; X17 = CN([C@@H](Cc1cn(-c2ccccc2)c2ccccc12)C(=O)[*:2])[*:1]; Butanoyl(2R-oxy,4-CN) = N#CCC[C@@H](O)C(=O)O; Nva(5,5,5-F3) = N[C@@H](CCC(F)(F)F)C(=O)O; Abu(4,4,4-F3) = N[C@@H](CC(F)(F)F)C(=O)O; NMeBta = CN[C@@H](Cc1csc2ccccc12)C(=O)O; tBuAla = CC(C)(C)C[C@H](N)C(=O)O; NMeL = CN[C@@H](CC(C)C)C(=O)O; NMeA = CN[C@@H](C)C(=O)O

Assays:
Format in all cases: cell-based
[1] = system: VCAMss+10aa/Gaussia Luciferase; assay: VCAM-ss-Gluc assay (constitutively active or Dox induced); conditions: Flp-In 293 T-REx cells, 24 hours
Protocol: Assays Constitutively Active VCAM-ss-Gluc Assay
Transfected cells were selected for resistance to the selectable markers Hygromycin and Blasticidin to create a stable cell line that constitutively expressed the VCAMss+ 10aa/Gaussia Luciferase fusion protein. The day before assay, cells were trypsinized and plated in 384-well tissue culture plates. The next day, culture media was removed from the wells and replaced with fresh media. Compound dilutions in DMSO/media were added to the wells and incubated at 37° C., 5% CO2.
Dox Induced VCAM-ss-Gluc Assay
Transfected cells were selected for resistance to the selectable markers Hygromycin and Blasticidin to create a stable cell line that contained the VCAMss+10aa/Gaussia Luciferase cDNA insert whose expression was regulated under the T-REx™ system. The day before assay, cells were trypsinized and plated in 384-well tissue culture plates. The next day, compound dilutions in DMSO/media containing doxycycline were added to the wells and incubated at 37° C., 5% CO2.

[2] = system: BT474 breast tumor cell line; assay: BT474 assay (Alamar blue); conditions: Homo sapiens, BT-474, 72 h
Protocol: (§1) BT474 is a human breast tumor cell line. JJN3 is a human plasma cell leukemia cell line. […] Cells were seeded at 100 000 cells/mL. Aliquots of 5000 cells (50 μL) were added to each well in black, clear bottom 96-well plates. Compounds or control (50 uL of 1% DMSO in cell culture medium) were added to the cells to the indicated final concentrations and cells were incubated for 72 h (unless otherwise specified). After incubation was complete, Alamar blue (10 uL of a 1 mg/mL solution) was added to each well and plates were incubated for 5 h. Fluorescence was then measured (excitation 545 nm, emission 590 nm) and is reported as […] normalized to DMSO control.

[3] = system: Prl-ss+10aa/Gaussia Luciferase; assay: Prl-ss-Gluc assay (constitutively active or 24 hr Dox inducible); conditions: Flp-In 293 T-REx cells, 24 hours; read-out: Prl IC50
Summary of the method: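 Stable Flp-In 293 T-REx lines express Prl signal sequence+10aa fused to Gaussia luciferase, either constitutively (pcDNA5/FRT) or under the T-REx promoter (pcDNA5/FRT/TO). Cells plated the day before; compounds in DMSO/media (with doxycycline for the inducible line, 24 h) incubated at 37 °C, 5% CO2.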

[4] = system: TNFα-FL/Gaussia Luciferase; assay: Dox induced TNFα-FL-Gluc assay; conditions: Flp-In 293 T-REx cells, doxycycline, 24 hours; read-out: TNFa FL Gluc IC50
Summary of the method: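 Stable Flp-In 293 T-REx line expressing full-length TNFα (aa 1-233) fused at its C-terminus to Gaussia luciferase under doxycycline-inducible control. Cells plated the day before, then given compound dilutions in DMSO/media containing doxycycline and incubated at 37 °C, 5% CO2.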

[5] = system: PD1-ss+10aa/Gaussia Luciferase; assay: Dox induced PD1-ss-Gluc assay; conditions: Flp-In 293 T-REx cells, doxycycline, 24 hours; read-out: PD1ss Gluc IC50
Summary of the method: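 Stable Flp-In 293 T-REx line expressing doxycycline-inducible Gaussia luciferase fused to the PD1 signal sequence plus 10 amino acids. Cells plated the day before, then exposed to compound dilutions in DMSO/media containing doxycycline at 37 °C, 5% CO2.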

[6] = system: JJN3 plasma cell leukemia cell line; assay: JJN-3 assay (Alamar blue); conditions: Homo sapiens, 72 h
Protocol: as §1

[7] = system: NCI-H929 multiple myeloma cell line; assay: H929 assay (cell viability, Celltiter-Glo); conditions: Homo sapiens, NCI-H929; 48 hours, cell viability; read-out: H929 EC50
Summary of the method: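 Cells plated in RPMI 1640 with 10% FBS and 2 mM glutamine, treated with compound dilutions in DMSO/media. Incubation 48 h at 37° C, 5% CO2. Viability from luciferase luminescence signal.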

HER3ss-Gluc = assay: HER3ss assay; conditions: HEK-293T T-rex cells, transient transfection, doxycycline, 24 h; read-out: HER3 ss IC50
Summary of the method: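 HEK-293T T-REx cells were transiently transfected with HER3 signal sequence (plus four mature-domain residues) fused upstream of mature Gaussia luciferase. Cells were induced with doxycycline (1 μg/ml) and exposed to increasing compound concentrations for 24 h, then secreted luciferase in the conditioned medium was read by luminescence.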

[8] = system: U266B1 multiple myeloma cell line; assay: U266 assay (cell viability, Celltiter-Glo); conditions: Homo sapiens, U-266; 48 hours, cell viability
Protocol: Cells were plated in 384-well tissue culture plates and treated with compound dilutions in DMSO/media. Plates were incubated at 37° C., 5% CO2 for 48 hours. After 48 hours, Celltiter-Glo@ (Promega) was added to each well and luciferase signal was quantified using Tecan Infinite M1000 Pro for cell viability determination.

Row | SMILES | IC50 [1] | EC50 [2] | IC50 [3] | IC50 [4] | IC50 [5] | EC50 [6] | EC50 [7] | IC50 (HER3ss-Gluc) | EC50 [8]
1 | CC(C)C[C@@H]1NC(=O)[C@H](Cc2csc3ccccc23)N(C)C(=O)[C@H](CC(C)C)NC(=O)[C@H](CC(C)C)N(C)C(=O)[C@H](CC(C)C)NC(=O)[C@@H](CCC#N)OC(=O)[C@H](C)N(C)C1=O [C-29] (HELM PEPTIDE1{L.[meA].[N#CCC[C@@H](O[*:1])C(=O)[*:2]].L.[meL].L.[CN([C@@H](Cc1csc2ccccc12)C(=O)[*:2])[*:1]]}$PEPTIDE1,PEPTIDE1,1:R1-7:R2$$$V2.0) | 0.026 µM | 1.33 µM | 3.4 µM | 0.314 µM | 0.1 µM | 0.316 µM | 2.64 µM | 0.022 µM | 
2 | CCCC[C@@H]1NC(=O)[C@@H](CCC#N)OC(=O)[C@H](C)N(C)C(=O)[C@H](CC(C)C)NC(=O)[C@H](Cc2cn(Cc3ccc(Br)cc3)c3ccccc23)N(C)C(=O)[C@H](CC(C)C)NC(=O)[C@H](CC(C)C)N(C)C1=O [C-40] (HELM PEPTIDE1{L.[meA].[N#CCC[C@@H](O[*:1])C(=O)[*:2]].[Nle].[meL].L.[CN([C@@H](Cc1cn(Cc2ccc(Br)cc2)c2ccccc12)C(=O)[*:2])[*:1]]}$PEPTIDE1,PEPTIDE1,1:R1-7:R2$$$V2.0) | 0.122 µM | 2.15 µM | 3.27 µM | 0.184 µM | 0.048 µM | 0.327 µM | 2.29 µM | 0.802 µM | 
3 | CCCC[C@@H]1NC(=O)[C@@H](CCC#N)OC(=O)[C@H](C)N(C)C(=O)[C@H](CC(C)C)NC(=O)[C@H](Cc2cn(Cc3ccc(C(F)(F)F)cc3)c3ccccc23)N(C)C(=O)[C@H](CC(C)C)NC(=O)[C@H](CC(C)C)N(C)C1=O [C-46] (HELM PEPTIDE1{L.[meA].[N#CCC[C@@H](O[*:1])C(=O)[*:2]].[Nle].[meL].L.[CN([C@@H](Cc1cn(Cc2ccc(C(F)(F)F)cc2)c2ccccc12)C(=O)[*:2])[*:1]]}$PEPTIDE1,PEPTIDE1,1:R1-7:R2$$$V2.0) | 0.141 µM | 3.12 µM | 15 µM | 0.296 µM | 0.035 µM | 0.64 µM | 3.07 µM |  | 
4 | COc1ccc(Cn2cc(C[C@H]3C(=O)N[C@@H](CC(C)C)C(=O)N(C)[C@@H](C)C(=O)O[C@H](CCC#N)C(=O)N[C@@H](CC(C)C)C(=O)N(C)[C@@H](CC(C)C)C(=O)N[C@@H](CC(C)C)C(=O)N3C)c3ccccc32)cc1 [C-31] (HELM PEPTIDE1{L.[meA].[N#CCC[C@@H](O[*:1])C(=O)[*:2]].L.[meL].L.[COc1ccc(Cn2cc(C[C@@H](C(=O)[*:2])N(C)[*:1])c3ccccc32)cc1]}$PEPTIDE1,PEPTIDE1,1:R1-7:R2$$$V2.0) |  | 5.89 µM |  | 4.06 µM | 0.38 µM | 2.06 µM |  | 0.264 µM | 
5 | CC(C)C[C@@H]1NC(=O)[C@H](Cc2cn(Cc3ccc(Br)cc3)c3ccccc23)N(C)C(=O)[C@H](CC(C)C)NC(=O)[C@H](CC(C)C)N(C)C(=O)[C@H](CC(C)(C)C)NC(=O)[C@@H](CCC#N)OC(=O)[C@H](C)N(C)C1=O [C-39] (cyclo(L[NMeA][Butanoyl(2R-oxy,4-CN)][tBuAla][NMeL]L[NMeTrp(1-(4-Br-benzyl))])) | 0.301 µM | 3.57 µM | 3.29 µM | 0.265 µM | 0.067 µM | 0.621 µM | 3.11 µM | 0.33 µM | 
6 | CC(C)C[C@@H]1NC(=O)[C@H](CC(C)C)N(C)C(=O)[C@H](CC(F)(F)F)NC(=O)[C@@H](CCC#N)OC(=O)[C@H](C)N(C)C(=O)[C@H](CCC(F)(F)F)NC(=O)[C@H](Cc2cn(Cc3ccc(Br)cc3)c3ccccc23)N(C)C1=O [C-48] (cyclo(L[NMeTrp(1-(4-Br-benzyl))][Nva(5,5,5-F3)][NMeA][Butanoyl(2R-oxy,4-CN)][Abu(4,4,4-F3)][NMeL])) | 0.036 µM | 1.24 µM | 1.34 µM | 0.133 µM | 0.027 µM | 0.284 µM | 1.63 µM |  | 
7 | CC(C)C[C@@H]1NC(=O)[C@H](Cc2ccccc2)N(C)C(=O)[C@H](CC(C)C)NC(=O)[C@H](CC(C)C)N(C)C(=O)[C@H](CC(C)C)NC(=O)[C@@H](CCC#N)OC(=O)[C@H](C)N(C)C1=O [C-37] (HELM PEPTIDE1{L.[meA].[N#CCC[C@@H](O[*:1])C(=O)[*:2]].L.[meL].L.[meF]}$PEPTIDE1,PEPTIDE1,1:R1-7:R2$$$V2.0) |  | 6.36 µM | 18.5 µM | 1.02 µM | 0.582 µM | 8.81 µM | 6.29 µM | 0.267 µM | 20.9 µM

Results, then the compound that gave them:

Row | IC50 [1] | EC50 [2] | IC50 [3] | IC50 [4] | IC50 [5] | EC50 [6] | EC50 [7] | IC50 (HER3ss-Gluc) | EC50 [8] | SMILES
8 | 0.022 µM | 1.8 µM |  | 0.55 µM | 0.168 µM | 0.623 µM | 3.37 µM | 0.017 µM |  | CC(C)C[C@@H]1NC(=O)[C@H](CC(C)C)N(C)C(=O)[C@H](CC(F)(F)F)NC(=O)[C@@H](CCC#N)OC(=O)[C@H](C)N(C)C(=O)[C@H](CCC(F)(F)F)NC(=O)[C@H](Cc2csc3ccccc23)N(C)C1=O [C-49] (cyclo(L[NMeBta][Nva(5,5,5-F3)][NMeA][Butanoyl(2R-oxy,4-CN)][Abu(4,4,4-F3)][NMeL]))
9 | 0.072 µM | 3.44 µM |  | 0.836 µM | 0.133 µM | 1.07 µM | 6.2 µM |  |  | CC(C)C[C@@H]1NC(=O)[C@H](Cc2cn(-c3ccccc3)c3ccccc23)N(C)C(=O)[C@H](CC(C)C)NC(=O)[C@H](CC(C)C)N(C)C(=O)[C@H](CC(F)(F)F)NC(=O)[C@@H](CCC#N)OC(=O)[C@H](C)N(C)C1=O [C-51] (cyclo(L[NMeA][Butanoyl(2R-oxy,4-CN)][Abu(4,4,4-F3)][NMeL]L[X17]))
10 | 0.03 µM | 2.45 µM | 9.06 µM | 0.644 µM | 0.201 µM | 1.08 µM | 4.54 µM |  |  | CC(C)C[C@@H]1NC(=O)[C@@H](CCC#N)OC(=O)[C@H](C)N(C)C(=O)[C@H](CCC(F)(F)F)NC(=O)[C@H](Cc2csc3ccccc23)N(C)C(=O)[C@H](CC(C)C)NC(=O)[C@H](CC(C)C)N(C)C1=O [C-50] (cyclo(L[NMeBta][Nva(5,5,5-F3)][NMeA][Butanoyl(2R-oxy,4-CN)]L[NMeL]))
11 |  | 8.22 µM |  |  |  | 0.92 µM |  | 0.857 µM |  | CC(C)C[C@@H]1NC(=O)[C@H](Cc2cn(Cc3cccc(OC(F)(F)F)c3)c3ccccc23)N(C)C(=O)[C@H](CC(C)C)NC(=O)[C@H](CC(C)C)N(C)C(=O)[C@H](CC(C)C)NC(=O)[C@@H](CCC#N)OC(=O)[C@H](C)N(C)C1=O [C-75] (HELM PEPTIDE1{L.[meA].[N#CCC[C@@H](O[*:1])C(=O)[*:2]].L.[meL].L.[CN([C@@H](Cc1cn(Cc2cccc(OC(F)(F)F)c2)c2ccccc12)C(=O)[*:2])[*:1]]}$PEPTIDE1,PEPTIDE1,1:R1-7:R2$$$V2.0)
